Results published in publication PMC8247405 (British Journal of Clinical Pharmacology, 2020).

What was measured:
[1] = system: renal transplant recipients; conditions: in vivo, cited from earlier work
[2] = system: type‐2 diabetes patients; design: species or system human; conditions: in vivo
[3] = system: type‐2 diabetes patients; conditions: human, in vivo
[4] = system: type‐2 diabetes patients; conditions: human, in vivo; cited from earlier work
[5] = system: type‐2 diabetes patients; conditions: human, in vivo; remark: listed apart in the source
[6] = system: type‐2 diabetes patients; conditions: human, in vivo; remark: listed apart in the source
[7] = system: patients; conditions: in vivo; cited from earlier work

SMILES: CCCCCCCCc1ccc(CCC(N)(CO)CO)cc1 [fingolimod]
- effect on creatinine clearance ([1]; 2.5 mg): creatinine clearance impairment
- lymphocyte reduction [1]: 70–80%

SMILES: CCCc1nn(C)c2c(=O)[nH]c(-c3cc(S(=O)(=O)N4CCN(C)CC4)ccc3OCC)nc12 [sildenafil]
- FMD change versus placebo Mean estimate [95% CI] [2]: 0.88%
- FMD with treatment [2]: about 5%
- Patients with TEAE: Any class [3]: 5 (41.7%) n (%)
- Patients with TEAE: Arthropod sting [3]: 0 n (%)
- Patients with TEAE: Back pain [3]: 1 (8.3%) n (%)
- Patients with TEAE: Cardiac disorders [3]: 1 (8.3%) n (%)
- Patients with TEAE: Contusion [3]: 0 n (%)
- Patients with TEAE: Cough [3]: 0 n (%)
- Patients with TEAE: Diarrhoea [3]: 2 (16.7%) n (%)
- Patients with TEAE: Dyspepsia [3]: 1 (8.3%) n (%)
- Patients with TEAE: Epistaxis [3]: 0 n (%)
- Patients with TEAE: Erythema [3]: 2 (16.7%) n (%)
- Patients with TEAE: Gastroesophageal reflux disease [3]: 1 (8.3%) n (%)
- Patients with TEAE: Gastrointestinal disorders [3]: 3 (25.0%) n (%)
- Patients with TEAE: General disorders and administration site conditions [3]: 0 n (%)
- Patients with TEAE: Headache [3]: 2 (16.7%) n (%)
- Patients with TEAE: Infections and infestations [3]: 1 (8.3%) n (%)
- Patients with TEAE: Injury, poisoning and procedural complications [3]: 0 n (%)
- Patients with TEAE: Leading to treatment discontinuation [3]: 1 (8.3%) n (%)
- Patients with TEAE: Musculoskeletal and connective tissue disorders [3]: 1 (8.3%) n (%)
- Patients with TEAE: Musculoskeletal pain [3]: 0 n (%)
- Patients with TEAE: Nasopharyngitis [3]: 1 (8.3%) n (%)
- Patients with TEAE: Nausea [3]: 0 n (%)
- Patients with TEAE: Neck pain [3]: 0 n (%)
- Patients with TEAE: Nervous system disorders [3]: 2 (16.7%) n (%)
- Patients with TEAE: Obstructive airways disorder [3]: 0 n (%)
- Patients with TEAE: Oropharyngeal pain [3]: 1 (8.3%) n (%)
- Patients with TEAE: Orthostatic intolerance [3]: 0 n (%)
- Patients with TEAE: Otitis externa [3]: 0 n (%)
- Patients with TEAE: Palpitations [3]: 0 n (%)
- Patients with TEAE: Pruritus [3]: 0 n (%)
- Patients with TEAE: Respiratory, thoracic and mediastinal disorders [3]: 1 (8.3%) n (%)
- Patients with TEAE: Severe AE [3]: 0 n (%)
- Patients with TEAE: Skin abrasion [3]: 0 n (%)
- Patients with TEAE: Skin and subcutaneous tissue disorders [3]: 2 (16.7%) n (%)
- Patients with TEAE: Traumatic haematoma [3]: 0 n (%)
- Patients with TEAE: Ventricular extrasystoles [3]: 1 (8.3%) n (%)
- Patients with TEAE: Vessel puncture site haematoma [3]: 0 n (%)
- Patients with TEAE: Vomiting [3]: 0 n (%)
- FMD increase from baseline compared to placebo [4]: ≥ 3%
- FMD increases from baseline [4]: 5–6%
- effect on FMD [4]: failed to improve FMD
- heart rate change [5]: no change
- mean heart rate increase [5]: 3–6 beats/min
- vasodilatory effect (blood pressure, BAD) [6]: no blood pressure‐lowering or BAD increase

SMILES: CCOC(=O)N1c2ccc(C(F)(F)F)cc2[C@@H](N(Cc2cc(C(F)(F)F)cc(C(F)(F)F)c2)C(=O)OC)C[C@H]1CC [torcetrapib]
- effect on FMD [7]: pharmacological decrease in FMD
